# Like-named read-outs stand apart in the source and are kept apart here.
# Tests used:
# IL-6 = IL-6 inhibition, LPS-induced PBMCs or CD14+ monocytes, Meso Scale assay; type: cell-based; settings: LPS 100 ng/mL 18-24 h, read-out: % Inhibition compared to DMSO, IL-6; for inhibition at 1 µM: tested at 1 μM; for inhibition at 10 µM: tested at 10 μM
# Experimental: (§1) Either frozen primary blood mononuclear cells (PBMCs) or frozen CD14+ mobilized peripheral blood monocytes were purchased from AllCells (PB003F, Normal Peripheral Blood MNC (Alameda, Calif.)). Cells were quick thawed, washed 1-time with RPMI-1640 (10% FBS/1% Pen-Strep) and plated in 96 well plates at 200,000 cells per well. Cells were pretreated with DMSO only or with the indicated compound for 1 h and then induced with 100 ng/mL lipopolysaccharide (LPS) for 18-24 h. The supernatant was analyzed for IL-1β, IL-6, and TNFα, using Meso Scale assay according to manufacturer's protocol. The negative control wells were treated with DMSO.
# (§2) IL-1β, IL-6 and TNFα activities were tested at two different concentrations (1 μM and 10 μM) and the results are shown in Tables 2 and 3 respectively.
# CK1α = target: T1, CK1α (Homo sapiens, UniProt P48729+Q96SW2); experiment: Western blot, degradation of cellular CK1α in MV-4-11 cells; type: cell-based; settings: MV4-11, tested at 1 μM, 6-8 hours, read-out: % Degradation compared to DMSO, CK1α
# T1 construct: endogenous in cells; host or cells: MV-4-11
# Experimental: (§3) MV-4-11 cells were grown in RPMI 1640 media supplemented with 10% fetal bovine serum, streptomycin and penicillin.
# (§4) Cells were cultured at approximately 10^6 cells per mL and incubated in DMSO or the indicated compounds for 6-8 hours. Whole cell extracts were prepared using RIPA lysis buffer according to manufacturer's protocol (Pierce). Briefly, 4×10^6 cells were washed once in PBS, the cell pellets were resuspended in RIPA lysis buffer and allowed to incubate for 15 minutes on ice. Cells debris was removed by centrifugation and the cleared whole cell lysates were transferred to new tubes for further analysis.
# (§5) For Western blot analysis, whole cell protein extracts were separated on 4-12% SDS-polyacrylamide gels, transferred to nitrocellulose and probed with the indicated primary antibodies. Membranes were subsequently washed and probed with the appropriate IRDye secondary antibodies (LI-COR). The signal was detected using the Odyssey Imaging System (LI-COR).
# (§6) The following antibodies were used in these studies: Anti-PDE6D antibody: Santa Cruz Biotechnology, sc-166854 (Dallas, Tex.); Anti-Ikaros: Abcam, ab191394 (Cambridge, Mass.); anti-CK1α antibody: Abcam, ab108296 (Cambridge, Mass.); β-Actin (8H10D10) mouse monoclonal antibody: Cell Signaling Technology, #3700 (Danvers, Mass.); IRDye 680RD Goat anti-rabbit antibody: LI-COR, 926-68071 (Lincoln, Nebr.); and IRDye 800CW Goat anti-mouse antibody: LI-COR, 926-32210 (Lincoln, Nebr.).
# (§7) The % degradation values are reported as “A”, “B”, “C”, or “D.” “A” represents a % degradation value of less than 25% (value<25%); “B” represents a % degradation value of equal to or more than 25% and less than 50% (25%≤value<50%); “C” represents a % degradation value of equal to or more than 50% and less than 75% (50%≤value<75%); and “D” represents a % degradation value of equal to or more than 75% (value≥75%). […] was used as control.
# PDE6D = target: T2, PDE6D (Homo sapiens, UniProt O43924+Q96SW2); experiment: Western blot, degradation of cellular PDE6D in MV-4-11 cells; type: cell-based; settings: for % Degradation of PDE6D: comparison with comparative compound A; for Dmax at 1 µM: MV4-11, tested at 1 μM, MV-4-11 cells, 6-8 hours, read-out: % Degradation compared to DMSO, PDE6D
# T2 construct: endogenous in cells; host or cells: MV-4-11
# Experimental: as §3, §4, §5, §6, §7
# TNFα = TNFα inhibition, LPS-induced PBMCs or CD14+ monocytes, Meso Scale assay; type: cell-based; settings: LPS 100 ng/mL 18-24 h, read-out: % Inhibition compared to DMSO, TNFα; for inhibition at 1 µM: tested at 1 μM; for inhibition at 10 µM: tested at 10 μM
# Experimental: as §1, §2
# IL-1β = IL-1β inhibition, LPS-induced PBMCs or CD14+ monocytes, Meso Scale assay; type: cell-based; settings: LPS 100 ng/mL 18-24 h, read-out: % Inhibition compared to DMSO, IL-1β; for inhibition at 1 µM: tested at 1 μM; for inhibition at 10 µM: tested at 10 μM
# Experimental: as §1, §2
# Ikaros = target: T3, Ikaros (Homo sapiens, UniProt Q13422+Q96SW2); experiment: Western blot, degradation of cellular Ikaros in MV-4-11 cells; type: cell-based; settings: MV4-11, tested at 1 μM, 6-8 hours, read-out: % Degradation compared to DMSO, Ikaros
# T3 construct: endogenous in cells; host or cells: MV-4-11
# Experimental: as §3, §4, §5, §6, §7
# IL-2 = IL-2 inhibition assay, anti-CD3 (OKT3) stimulated PBMCs, Mesoscale IL-2 analysis; type: cell-based, human; settings: for fold induction at 1 µM / fold induction at 10 µM: Homo sapiens, PBMC, read-out: IL-2, % Induction compared to DMSO
# Experimental: For the IL-2 analysis, 96 well plates were precoated with 1 μg/mL anti-human CD3 antibody (OKT3, eBioscience Inc., San Diego, Calif.). After washing with PBS, the indicated compound was added (50 μL/well) followed by PBMCs diluted at 3-4 million cells/mL (150 μL/well). Plates were incubated for 24 h and the supernatants collected for Mesoscale IL-2 analysis. IL-2 activity is measured as fold difference from the DMSO control. […]
# In Table 4, the fold-change values are reported as “A”, “B”, “C”, or “D”. “A” represents a fold-change value of equal to or less than 0.5 (value≤0.5); “B” represents a fold-change value of more than 0.5 and equal to or less than 1 (0.5<value≤1); “C” represents a fold-change value of more than 1 and less than 1.5 (1<value<1.5); and “D” represents a fold-change value of equal to or more than 1.5 (value≥1.5).
# [1] = PBMCs on anti-CD3, 24 h, fold difference from DMSO control
# [2] = 10 μM, PBMCs on anti-CD3, 24 h, fold difference from DMSO control
# T3 sequence (Q13422 whole entry): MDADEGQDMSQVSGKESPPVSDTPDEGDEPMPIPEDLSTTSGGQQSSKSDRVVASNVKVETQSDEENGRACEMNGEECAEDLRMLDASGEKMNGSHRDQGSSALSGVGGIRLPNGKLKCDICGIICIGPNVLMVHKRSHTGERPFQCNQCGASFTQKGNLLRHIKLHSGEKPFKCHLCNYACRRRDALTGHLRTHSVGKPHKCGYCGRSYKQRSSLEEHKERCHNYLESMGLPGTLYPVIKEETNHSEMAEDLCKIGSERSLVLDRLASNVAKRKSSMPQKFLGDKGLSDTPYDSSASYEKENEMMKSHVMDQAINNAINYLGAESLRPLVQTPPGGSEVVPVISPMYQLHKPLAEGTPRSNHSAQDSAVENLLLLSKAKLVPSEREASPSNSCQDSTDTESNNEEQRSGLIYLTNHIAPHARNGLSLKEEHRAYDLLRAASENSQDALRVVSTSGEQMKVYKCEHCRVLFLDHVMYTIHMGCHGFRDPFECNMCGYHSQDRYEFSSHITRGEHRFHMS
# T3 sequence (Q96SW2 whole entry): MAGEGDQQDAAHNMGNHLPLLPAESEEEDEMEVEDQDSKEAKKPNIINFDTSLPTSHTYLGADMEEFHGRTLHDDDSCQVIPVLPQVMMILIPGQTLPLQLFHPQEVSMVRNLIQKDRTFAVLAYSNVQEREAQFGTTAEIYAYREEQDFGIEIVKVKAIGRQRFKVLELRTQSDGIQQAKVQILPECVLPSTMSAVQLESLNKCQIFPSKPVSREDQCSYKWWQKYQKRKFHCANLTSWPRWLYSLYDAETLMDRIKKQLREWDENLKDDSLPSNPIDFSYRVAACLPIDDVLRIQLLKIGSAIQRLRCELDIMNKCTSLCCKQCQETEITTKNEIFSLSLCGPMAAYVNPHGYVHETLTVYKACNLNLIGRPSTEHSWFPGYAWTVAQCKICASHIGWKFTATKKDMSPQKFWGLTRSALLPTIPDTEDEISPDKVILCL
# T3 sequence (Q16531 whole entry partner): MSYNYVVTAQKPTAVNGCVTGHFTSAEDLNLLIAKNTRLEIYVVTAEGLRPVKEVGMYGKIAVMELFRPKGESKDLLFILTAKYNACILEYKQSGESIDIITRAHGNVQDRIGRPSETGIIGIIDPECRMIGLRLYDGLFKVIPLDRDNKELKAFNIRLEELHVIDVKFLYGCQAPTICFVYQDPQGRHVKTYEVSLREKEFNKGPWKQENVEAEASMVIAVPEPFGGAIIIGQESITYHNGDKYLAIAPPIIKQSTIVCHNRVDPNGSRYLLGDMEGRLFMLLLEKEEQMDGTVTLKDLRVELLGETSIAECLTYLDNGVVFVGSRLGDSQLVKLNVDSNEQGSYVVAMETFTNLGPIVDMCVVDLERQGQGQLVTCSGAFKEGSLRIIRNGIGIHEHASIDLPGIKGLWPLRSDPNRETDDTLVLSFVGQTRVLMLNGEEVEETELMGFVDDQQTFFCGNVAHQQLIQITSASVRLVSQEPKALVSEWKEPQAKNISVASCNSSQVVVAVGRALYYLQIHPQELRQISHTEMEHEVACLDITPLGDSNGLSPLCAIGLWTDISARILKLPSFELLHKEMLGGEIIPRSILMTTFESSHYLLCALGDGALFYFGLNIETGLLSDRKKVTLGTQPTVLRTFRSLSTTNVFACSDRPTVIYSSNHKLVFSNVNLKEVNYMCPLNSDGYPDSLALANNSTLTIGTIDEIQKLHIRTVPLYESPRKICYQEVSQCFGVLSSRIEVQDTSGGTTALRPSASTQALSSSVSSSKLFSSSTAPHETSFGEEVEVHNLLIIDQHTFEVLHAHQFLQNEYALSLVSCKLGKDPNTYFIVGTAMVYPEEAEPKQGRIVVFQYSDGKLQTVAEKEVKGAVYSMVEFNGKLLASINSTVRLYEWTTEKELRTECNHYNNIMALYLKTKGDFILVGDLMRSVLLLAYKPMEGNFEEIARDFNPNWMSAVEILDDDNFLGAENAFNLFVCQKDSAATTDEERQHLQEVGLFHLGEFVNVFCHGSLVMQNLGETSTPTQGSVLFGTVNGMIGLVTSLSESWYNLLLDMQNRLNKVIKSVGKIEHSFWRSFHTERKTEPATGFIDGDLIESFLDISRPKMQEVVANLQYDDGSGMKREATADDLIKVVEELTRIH
# T1 sequence (P48729 whole entry): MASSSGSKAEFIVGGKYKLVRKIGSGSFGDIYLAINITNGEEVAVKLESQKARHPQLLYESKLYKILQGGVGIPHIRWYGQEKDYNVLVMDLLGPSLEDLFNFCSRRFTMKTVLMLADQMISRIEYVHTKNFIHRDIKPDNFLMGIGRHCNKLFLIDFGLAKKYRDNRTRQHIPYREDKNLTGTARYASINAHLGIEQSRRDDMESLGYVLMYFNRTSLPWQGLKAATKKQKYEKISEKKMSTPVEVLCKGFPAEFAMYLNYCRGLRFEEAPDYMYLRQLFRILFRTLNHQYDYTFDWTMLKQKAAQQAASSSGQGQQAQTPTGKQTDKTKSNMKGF
# T1 sequence (Q96SW2 whole entry): as the sequence (Q96SW2 whole entry) above
# T1 sequence (Q16531 whole entry partner): as the sequence (Q16531 whole entry partner) above
# T2 sequence (O43924 whole entry): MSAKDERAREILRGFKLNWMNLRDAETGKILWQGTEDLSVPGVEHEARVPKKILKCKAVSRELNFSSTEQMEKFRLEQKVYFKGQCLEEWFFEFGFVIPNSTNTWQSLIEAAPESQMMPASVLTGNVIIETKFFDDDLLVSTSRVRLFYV
# T2 sequence (Q96SW2 whole entry): as the sequence (Q96SW2 whole entry) above
# T2 sequence (Q16531 whole entry partner): as the sequence (Q16531 whole entry partner) above
SMILES,Dmax at 1 µM (CK1α) [%],Dmax at 1 µM (PDE6D) [%],Dmax at 1 µM (Ikaros) [%],inhibition at 1 µM (IL-6) [%],inhibition at 10 µM (IL-6) [%],% Degradation of PDE6D (PDE6D; 1 μM),inhibition at 1 µM (TNFα) [%],inhibition at 10 µM (TNFα) [%],inhibition at 1 µM (IL-1β) [%],inhibition at 10 µM (IL-1β) [%],effect on IL-2 (in words) (IL-2; 10 μM),"IL-2, % Induction compared to DMSO (IL-2; 10 μM, comparison with comparative compound B)",fold induction at 1 µM (IL-2; [1]),fold induction at 10 µM (IL-2; [2]),PDE6D degradation activity (in words) (PDE6D; 1 μM),"fold induction at 10 µM (IL-2; 24 h, 10 μM, comparison with comparative compound B)"
O=C1CCC(N2Cc3c(cccc3C3CCCC3)C2=O)C(=O)N1 (stereo not shown) [Compound 2],25 to 50,≥ 75,< 25,10 to 25,10 to 25,,< 10,10 to 25,< 10,10 to 25,,,0.5 to 1,0.5 to 1,,
"CC1(N2Cc3c(cc(F)cc3C3CCCC3)C2=O)CCC(=O)NC1=O (stereo not shown) [Compound 4, 3-(4-cyclopentyl-6-fluoro-1-oxoisoindolin-2-yl)-3-methylpiperidine-2,6-dione]",< 25,< 25,< 25,< 10,< 10,,25 to 50,> 50,< 10,10 to 25,,,0.5 to 1,0.5 to 1,,
"CC1CC(=O)NC(=O)C1N1Cc2c(cc(F)cc2C2CCCC2)C1=O (stereo not shown) [Compound 6, 3-(4-cyclopentyl-6-fluoro-1-oxoisoindolin-2-yl)-4-methylpiperidine-2,6-dione]",25 to 50,≥ 75,< 25,< 10,< 10,,10 to 25,> 50,< 10,10 to 25,,,0.5 to 1,≤ 0.5,,
"O=C1CCC(N2C(=O)c3cccc(C4CCCC4)c3C2=O)C(=O)N1 (stereo not shown) [Compound 10, 4-cyclopentyl-2-(2,6-dioxopiperidin-3-yl)isoindoline-1,3-dione]",< 25,50 to 75,25 to 50,< 10,10 to 25,,10 to 25,> 50,< 10,10 to 25,,,1 to 1.5,0.5 to 1,,
"O=C1CCC(N2Cc3c(cc(F)cc3C(F)F)C2=O)C(=O)N1 (stereo not shown) [Compound 17, 3-(4-(Difluoromethyl)-6-fluoro-1-oxoisoindolin-2-yl) piperidine-2,6-dione]",,50 to 75,≥ 75,< 10,< 10,,25 to 50,25 to 50,< 10,10 to 25,,,0.5 to 1,0.5 to 1,,
"Cc1cccc2c1CN(C1CCCC(=O)NC1=O)C2=O (stereo not shown) [Compound A, reference compound]",,,,,,A (a % degradation value of less than 25% (value<25%)),,,,,,,,,did not demonstrate any measurable PDE6D degradation activity,
"Cc1cccc2c1CN(C1CCC(=O)NC1=O)C2=O (stereo not shown) [Compound B, reference compound]",,,,,,,,,,,induced IL-2 (upregulation),,,,,≥ 1.5

# Further lines, with some results ahead:
Dmax at 1 µM (CK1α) [%],Dmax at 1 µM (PDE6D) [%],Dmax at 1 µM (Ikaros) [%],SMILES,inhibition at 1 µM (IL-6) [%],inhibition at 10 µM (IL-6) [%],% Degradation of PDE6D (PDE6D; 1 μM),inhibition at 1 µM (TNFα) [%],inhibition at 10 µM (TNFα) [%],inhibition at 1 µM (IL-1β) [%],inhibition at 10 µM (IL-1β) [%],effect on IL-2 (in words) (IL-2; 10 μM),"IL-2, % Induction compared to DMSO (IL-2; 10 μM, comparison with comparative compound B)",fold induction at 1 µM (IL-2; [1]),fold induction at 10 µM (IL-2; [2]),PDE6D degradation activity (in words) (PDE6D; 1 μM),"fold induction at 10 µM (IL-2; 24 h, 10 μM, comparison with comparative compound B)"
≥ 75,≥ 75,50 to 75,O=C1CCC(N2Cc3c(cc(F)cc3C3CCCC3)C2=O)C(=O)N1 (stereo not shown) [Compound 1],< 10,< 10,D (a % degradation value of equal to or more than 75% (value≥75%)),25 to 50,25 to 50,10 to 25,25 to 50,strong inhibition of IL-2 (downregulation),A (a fold-change value of equal to or less than 0.5 (value≤0.5)),≤ 0.5,≤ 0.5,,
50 to 75,≥ 75,25 to 50,O=C1CCC(N2Cc3c(cc(F)cc3C3CCCCC3)C2=O)C(=O)N1 (stereo not shown) [Compound 3],< 10,< 10,,< 10,< 10,< 10,< 10,,,≤ 0.5,≤ 0.5,,
≥ 75,≥ 75,25 to 50,O=C1CCC(N2Cc3c(cc(F)cc3C3CC3)C2=O)C(=O)N1 (stereo not shown) [Compound 5],< 10,< 10,,25 to 50,> 50,25 to 50,> 50,,,≤ 0.5,≤ 0.5,,
< 25,≥ 75,< 25,CC1(C)CCC(c2cc(F)cc3c2CN(C2CCC(=O)NC2=O)C3=O)CC1 (stereo not shown) [Compound 7],10 to 25,< 10,,< 10,10 to 25,< 10,< 10,,,1 to 1.5,0.5 to 1,,
< 25,< 25,< 25,CC1(C)CC=C(c2cc(F)cc3c2CN(C2CCC(=O)NC2=O)C3=O)CC1 (stereo not shown) [Compound 8],10 to 25,10 to 25,,10 to 25,25 to 50,< 10,< 10,,,0.5 to 1,0.5 to 1,,
< 25,≥ 75,< 25,O=C1CCC(N2Cc3c(cc(F)cc3C3=CCC(F)(F)CC3)C2=O)C(=O)N1 (stereo not shown) [Compound 9],10 to 25,10 to 25,,< 10,25 to 50,< 10,< 10,,,0.5 to 1,0.5 to 1,,
25 to 50,≥ 75,< 25,O=C1CCC(N2Cc3c(cc(F)cc3C3CCOCC3)C2=O)C(=O)N1 (stereo not shown) [Compound 32],< 10,,,< 10,,< 10,,,,,,,
